Experiment [1] concerns Raji cell derived from human Burkitt lymphoma. As to the kind of experiment: Inhibitory activity against production of triacylglycerol in human-derived cell (Raji). The class given is cell-based. To be noted: 0.5 h, [1-14C]oleic acid, 37° C., 30 minutes, read-out: concentration which inhibited 50% of production of triacylglycerol. The procedure: An influence on production of triacylglycerol was examined in accordance with a method by TOMODA et al. (Journal of Biological Chemistry, vol. 266, pp. 4,212 to 4,219, 1991) by use of a human-derived cell (Raji cell derived from human Burkitt lymphoma). 200 μl of 2.7×10^5 cells/ml of Raji cell solution [1-^14C]oleic acid (0.02 μCi) was allowed to react at 37° C. for 30 minutes. After all lipids were extracted from a mixed solution of chloroform and methanol (mixing ratio=1:2), a measurement was carried out by use of the same method as used for the inhibitory activity against diacylglycerol acyltransferase derived from a rat. The concentrations of the roselipin R-3A, R-3B, R-4 and R-5 compounds which inhibited 50% of production of triacylglycerol were measured.

Experiment [2] concerns the target diacylglycerol acyltransferase. As to the kind of experiment: Inhibitory activity against diacylglycerol acyltransferase derived from rat (rat liver microsome fraction). The class given is biochemical. Conditions: 23° C., 15 minutes, read-out: concentration which inhibited 50% of the diacylglycerol acyltransferase. The procedure:
A diacylglycerol acyltransferase activity was measured by means of a partially modified version of a method of Mayorek and Bar-Tana (Journal of Biological Chemistry, vol. 260, pp. […], 1985). That is, using a microsome fraction prepared from a rat liver as an enzyme source, 0.75 mM 1,2-dioleoyl-sn-glycerol and 30 μM [1-^14C]palmitoyl-CoA (0.02 μCi) were added to 175 mM tris-hydrochloric acid (HCl)(pH: 8.0) buffer containing 8 mM MgCl2, 1 mg/ml bovine serum albumin and 2.5 mM diisopropyl fluorophosphonate to a total volume of 200 μL. The mixture was allowed to react at 23° C. for 15 minutes. […] Thereafter, the radioactivity of a triacylglycerol fraction was measured by an RI radio scanner (manufactured by AMBIS CO., LTD.) to measure the diacylglycerol acyltransferase activity.

The subject of the next experiment is Mucor racemosus KF223. Put plainly: Paper disk growth inhibition circle. The class given is cell-based. Conditions: 10 μg on 6 mm filter paper.
The next experiment has as its system Pyricularia oryzae KB180. The class given is cell-based. To be noted: 10 μg on 6 mm filter paper.
The subject of experiment [3] is Acholeplasma laidlawii KB174. Put plainly: Paper disk growth inhibition circle. To be noted: 10 μg on 6 mm filter paper. The class given is cell-based.
The subject of a further experiment is Bacillus subtilis KB27. As to the kind of experiment: Paper disk growth inhibition circle. The class given is cell-based. Conditions: Bacillus subtilis KB27 (synthetic medium); 10 μg on 6 mm filter paper.

Turning to `CCC(C)CC(C)CC(C)C(O)C(C)/C=C(\C)C(O)C(C)/C=C(\C)C(OC)C(C)/C=C(\C)C(=O)OC` (stereo not shown) [roselipin R-5], the IC50 in experiment [1] is 250 µM; in experiment [2], greater than 984 µM.
Taken in the same sequence, the figures for `CCC(C)CC(C)CC(C)C(O)C(C)/C=C(\C)C(O)C(C)/C=C(\C)C(O)C(C)/C=C(\C)C(=O)OC[C@@H](O)[C@H](O)[C@H](O)CO` (stereo partly shown) [roselipin R-3B] were 10 µM and 33 µM.
`CCC(C)CC(C)CC(C)C(O[C@@H]1OC(CO)[C@@H](O)C(O)C1O)C(C)/C=C(\C)C(O)C(C)/C=C(\C)C(O)C(C)/C=C(\C)C(=O)OC` (stereo partly shown) [roselipin R-4]: the results for the “Diameter of Inhibition Circle” value in the experiment with Mucor racemosus KF223 and in the experiment on Pyricularia oryzae KB180 were 12 mm and 16 mm, respectively. For the same compound, the IC50 in experiment [1] was 200 µM; in experiment [2] it was greater than 762 µM.
On to `CCC(C)CC(C)CC(C)C(O)C(C)/C=C(\C)C(O)C(C)/C=C(\C)C(O)C(C)/C=C(\C)C(=O)OC[C@@H](O)[C@@H](O)[C@H](O)CO` (stereo partly shown) [roselipin R-3A], for which the “Diameter of Inhibition Circle” value in the experiment with Mucor racemosus KF223 came to 14 mm; in experiment [3] it was 10 mm; with Bacillus subtilis KB27, 10 mm. The figures for the IC50 in experiment [1] and in experiment [2] were 11 µM and 60 µM, respectively.

For the origin of these results see US6512099B2, “Roselipin derivative” (Kitasato Institute, priority 2001, dated 2003).
